# Laboratory results published in paper PMC7822874, “Chemoprotective antimalarials identified through quantitative high-throughput screening of Plasmodium blood and liver stage parasites” (Scientific Reports, 2021).
# “And” between values parts separate entries of the source, which are not always exact repeats. Equal entries are not always repeated. Where two headings read alike, the source gives them in different places.
# Key:
# [1] = system: T1, Plasmodium falciparum Dd2-attB-ScDHODH (transgenic line expressing yeast DHODH), asexual blood stages; assay: organism not typed; set-up: replicate k of 3 (each line is one of three independent assays; the three lines of one compound and parasite line follow each other); details: 72 h, n = 1
# T1 construct: Dd2-attB-ScDHODH, the transgenic line that expresses yeast DHODH
# Method in brief: (§1)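 Three independent runs, compound subset only; parental vs ScDHODH line compared by two-sided Student's t-test.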
# [2] = system: T2, Plasmodium falciparum Dd2-attB (parental line), asexual blood stages; assay: microbe, parasite or virus in culture; set-up: replicate k of 3 (each line is one of three independent assays; the three lines of one compound and parasite line follow each other); details: n = 1; for Individual replicates / Log AC50 (M): 72 h; for AC50: Plasmodium falciparum, DD2, 72 h, read-out: Individual replicates / Log AC50 (converted)
# T2 construct: Dd2-attB, the isogenic parental line
# Method in brief: as §1
# in vitro [3] = details: human, n = 1
# [4] = system: P. berghei-ANKA-GFP-LucCON liver stage parasites in HepG2-A16-CD81EGFP cells; assay: P. berghei liver stage Pb-Luc assay, Method 1 (UCSD, 1536-well); assay type: cell-based, Plasmodium berghei; details: for activity at 1 µM / activity at 3 µM: 48 h; for Max Resp (signal direction of the dose response): Decrease = decreasing P. berghei viability with dose, Increase = increasing signal, Inactive = no dose response
# [5] = system: Plasmodium falciparum Dd2 asexual blood stage parasites; assay: microbe, parasite or virus in culture; set-up: species or system Plasmodium falciparum Dd2 in human erythrocytes; single determination (one 11-point concentration-response curve); details: Plasmodium falciparum, DD2, Erythrocyte, 72 h; read-out: AC50
# HepG2-A16-CD81EGFP cells = details: average of 2 wells; for HepG2 1uM growth rep1 / HepG2 1uM growth rep2: HepG2, 1 µM compound treatment (10 mM stocks); for HepG2 1uM growth rep1 / HepG2 3uM growth rep1: replicate 1, normalized; for HepG2 1uM growth rep2 / HepG2 3uM growth rep2: replicate 2, normalized; for HepG2 3uM growth rep1 / HepG2 3uM growth rep2: HepG2, 3 µM compound treatment (10 mM stocks)
# in vitro [6] = details: human, HepG2-A16-CD81EGFP cells, uninfected
# [7] = Plasmodium berghei, P. berghei liver stage, 1 µM compound treatment (10 mM stocks), replicate 1, normalized, average of 2 wells on a 1536 well plate, read-out: PbLuc 1uM growth rep1
# [8] = Plasmodium berghei, P. berghei liver stage, 1 µM compound treatment (10 mM stocks), replicate 2, normalized, average of 2 wells on a 1536 well plate, read-out: PbLuc 1uM growth rep2
# [9] = Plasmodium berghei, P. berghei liver stage, 3 µM compound treatment (10 mM stocks), replicate 1, normalized, average of 2 wells on a 1536 well plate, read-out: PbLuc 3uM growth rep1
# [10] = Plasmodium berghei, P. berghei liver stage, 3 µM compound treatment (10 mM stocks), replicate 2, normalized, average of 2 wells on a 1536 well plate, read-out: PbLuc 3uM growth rep2
# [11] = Plasmodium berghei, Method 1, Hill fit, 50% of maximum activity response, read-out: AC50
# [12] = Plasmodium berghei, Method 1, log10 of molar AC50 from Hill fit, read-out: Log AC50 (converted)
smiles,measurement,setting,value
CN(C)C1CCN(Cc2cc(COCc3ccccc3)c3cccnc3c2O)C1 (stereo not shown) [NCGC00183372-01],Individual replicates / Log AC50 (M),[1],-5.2986 Log AC50 (M) and -5.1986 Log AC50 (M) and -4.7986 Log AC50 (M)
same,Individual replicates / Log AC50 (M),[2],-5.2486 Log AC50 (M) and -5.1486 Log AC50 (M)
same,AC50,[2],5.03 µM
same,CC50 at 48 h,in vitro [3]; HepG2 cells,21.7 µM
O=C(Nc1ncccc1O)c1ccc(NS(=O)(=O)c2ccc3[nH]c(=O)[nH]c3c2)cc1 [MLS001138628-01],activity at 1 µM,[4]; [7],61%
same,activity at 1 µM,[4]; [8],57%
same,activity at 3 µM,[4]; [9],21%
same,activity at 3 µM,[4]; [10],25%
same,AC50,[5],0.422 µM
same,HepG2 1uM growth rep1,HepG2-A16-CD81EGFP cells,110%
same,HepG2 1uM growth rep2,HepG2-A16-CD81EGFP cells,100%
same,HepG2 3uM growth rep1,HepG2-A16-CD81EGFP cells,89%
same,HepG2 3uM growth rep2,HepG2-A16-CD81EGFP cells,93%
same,CC50 at 48 h,in vitro [3]; HepG2 cells,21.7 µM
c1ccc(CCNc2nc(-c3ccccn3)nc3ccccc23)cc1 [MLS000769840-01],Max Resp (signal direction of the dose response),[4]; Method 1,Inactive
same,AC50,[5],4.73 µM
same,viability at 48 h,in vitro [6],96.1%
same,"viability at 48 h, 1 µM",in vitro [6],96.1%
same,CC50 at 48 h,in vitro [3]; HepG2 cells,10.9 µM
COc1ccc(C2C=C(c3ccc(Cl)cc3)Nc3nc(-c4ccc(Cl)cc4)nn32)cc1 (stereo not shown) [NCGC00100531-01],Max Resp (signal direction of the dose response),[4]; Method 1,Inactive
same,activity at 1 µM,"[4]; Plasmodium berghei, nominal 1 uM (10 mM stock), […] for 15 mM, 1.2 uM for 12 mM, 2 uM for 20 mM stock, average of 2 wells, 1536-well plate, repeat 1, read-out: Pb-Luc signal, 1 uM, repeat 1",88.1%
same,activity at 1 µM,"[4]; Plasmodium berghei, nominal 1 uM (10 mM stock), […] for 15 mM, 1.2 uM for 12 mM, 2 uM for 20 mM stock, average of 2 wells, 1536-well plate, repeat 2, read-out: Pb-Luc signal, 1 uM, repeat 2",81%
same,activity at 1 µM,"[4]; Plasmodium berghei, nominal 1 uM (10 mM stock), […] for 15 mM, 1.2 uM for 12 mM, 2 uM for 20 mM stock, average of 2 wells, 1536-well plate, repeat 3, read-out: Pb-Luc signal, 1 uM, repeat 3",70.8%
same,activity at 3 µM,"[4]; Plasmodium berghei, nominal 3 uM (10 mM stock), 4.5 uM for 15 mM, 3.6 uM for 12 mM, 6 uM for 20 mM stock, average of 2 wells, 1536-well plate, repeat 1, read-out: Pb-Luc signal, 3 uM, repeat 1",5.3%
same,activity at 3 µM,"[4]; Plasmodium berghei, nominal 3 uM (10 mM stock), 4.5 uM for 15 mM, 3.6 uM for 12 mM, 6 uM for 20 mM stock, average of 2 wells, 1536-well plate, repeat 2, read-out: Pb-Luc signal, 3 uM, repeat 2",3.16%
same,activity at 3 µM,"[4]; Plasmodium berghei, nominal 3 uM (10 mM stock), 4.5 uM for 15 mM, 3.6 uM for 12 mM, 6 uM for 20 mM stock, average of 2 wells, 1536-well plate, repeat 3, read-out: Pb-Luc signal, 3 uM, repeat 3",51.4%
same,AC50,[5],0.237 µM
same,"HepG2 viability signal, 1 uM, repeat 1","HepG2-A16-CD81EGFP cells; nominal 1 uM (10 mM stock), […] for 15 mM, 1.2 uM for 12 mM, 2 uM for 20 mM stock, repeat 1",97.18%
same,"HepG2 viability signal, 1 uM, repeat 2","HepG2-A16-CD81EGFP cells; nominal 1 uM (10 mM stock), […] for 15 mM, 1.2 uM for 12 mM, 2 uM for 20 mM stock, repeat 2",96.07%
same,"HepG2 viability signal, 3 uM, repeat 2","HepG2-A16-CD81EGFP cells; nominal 3 uM (10 mM stock), 4.5 uM for 15 mM, 3.6 uM for 12 mM, 6 uM for 20 mM stock, repeat 2",80.71%
same,CC50 at 48 h,in vitro [3]; hepg2,15.3 µM
O=C(CCl)Nc1cccc(-c2cnc3ccccc3n2)c1 [MLS000541295-01],activity at 1 µM,[4]; [7],128%
same,activity at 1 µM,[4]; [8],119%
same,activity at 3 µM,[4]; [9],151%
same,activity at 3 µM,[4]; [10],185%
same,AC50,[5],6.68 µM
same,HepG2 1uM growth rep1,HepG2-A16-CD81EGFP cells,90%
same,HepG2 1uM growth rep2,HepG2-A16-CD81EGFP cells,88%
same,HepG2 3uM growth rep1,HepG2-A16-CD81EGFP cells,89%
same,HepG2 3uM growth rep2,HepG2-A16-CD81EGFP cells,88%
same,CC50 at 48 h,in vitro [3]; HepG2 cells,13.7 µM
O=C1c2cc(F)ccc2-n2c1nc1ccccc1c2=O [MLS001216278-01],Max Resp (signal direction of the dose response),[4]; Method 1,Decrease
same,AC50,"[4]; Method 1, Hill fit, 50% of maximum activity response, read-out: AC50",0.004 µM
same,Log AC50 (M),"[4]; Method 1, log10 of molar AC50 from Hill fit",-8.400 M
same,AC50,[4]; [11],0.00355 µM
same,AC50,[4]; [12],0.00355 µM
same,AC50,[5],0.119 µM
same,viability at 66 h,in vitro [6],95.7%
same,CC50 at 48 h,in vitro [3]; HepG2 cells,12.2 µM
Oc1c(CN2CCCCC2)cc(COCc2ccccc2)c2cccnc12 [NCGC00052274-02],Individual replicates / Log AC50 (M),[1],-5.4986 Log AC50 (M)
same,AC50,[1]; read-out: Individual replicates / Log AC50 (converted),5.03 µM
same,AC50,[5],8.41 µM
same,Individual replicates / Log AC50 (M),[2],-5.4486 Log AC50 (M) and -5.3486 Log AC50 (M)
same,AC50,[2],5.64 µM
same,CC50 at 48 h,in vitro [3]; HepG2 cells,6.85 µM
O=C1c2ccccc2C(=O)c2[nH]c(=O)[nH]c21 [MLS001173438-01],Max Resp (signal direction of the dose response),[4]; Method 1,Decrease
same,AC50,[4]; [11],1.58 µM
same,AC50,[4]; [12],1.58 µM
same,AC50,[5],5.96 µM
same,viability at 66 h,in vitro [6],95.7%
same,CC50 at 48 h,in vitro [3]; HepG2 cells,10.9 µM
